Reference: patent US11491120B2, “Pharmacological prophylactics against stress-induced affective disorders in females” (The Trustees of Columbia University in the City of New York, priority 2017, dated 2022)
Entries after “also recorded” stand apart in the source; their conditions may differ.

Tested on: female 129S6/SvEv mice
Assay: Forced swim test (FST), immobility time, after stress
Conditions: for p, Sal vs. drug, Fisher's PLSD: Immobility Time (min 1-6), Forced Swim Test Day 2 / p, Sal vs. drug, Fisher's PLSD: Immobility Time Average (min 3-6), Forced Swim Test Day 2: 3 day prophylactic drug
[1] = 2.5 mg/kg, 1 week prophylactic drug
[2] = 10 mg/kg, 1 week prophylactic drug
[3] = 10 mg/kg, 1 week prophylactic drug, learned helplessness stress
[4] = 30 mg/kg, 1 week prophylactic drug
[5] = Forced Swim Test Day 1, Dunnett test Sal vs. drug (2.5), 1 week prophylactic drug
[6] = Forced Swim Test Day 1, Dunnett test Sal vs. drug (10), 1 week prophylactic drug
[7] = Forced Swim Test Day 1, Dunnett test Sal vs. drug (30), 1 week prophylactic drug
[8] = Ovariectomized cohort, 1 week prophylactic drug, Forced Swim Test Day 1, OVX mice, K (10), (2R,6R)-HNK (0.025)
[9] = Ovariectomized cohort, 1 week prophylactic drug, Forced Swim Test Day 1, Sham mice, K (10), (2R,6R)-HNK (0.025)

CNC1(c2ccccc2Cl)CCCCC1=O (racemic) [(R,S)-ketamine, (RS)-2-(2-chlorophenyl)-2-(methylamino)cyclohexanone]
p, Sal vs. drug, Dunnett test: Immobility Time (min 1), Forced Swim Test Day 2 [1]: 0.5849 | p, Sal vs. drug, Dunnett test: Immobility Time (min 1-6), Forced Swim Test Day 2 [1]: 0.8314 | p, Sal vs. drug, Dunnett test: Immobility Time (min 2), Forced Swim Test Day 2 [1]: 0.9770 | p, Sal vs. drug, Dunnett test: Immobility Time (min 4), Forced Swim Test Day 2 [1]: 0.9997 | p, Sal vs. drug, Dunnett test: Immobility Time (min 5), Forced Swim Test Day 2 [1]: 0.9999 | p, Sal vs. drug, Dunnett test: Immobility Time (min 6), Forced Swim Test Day 2 [1]: 0.9686 | p, Sal vs. drug, Dunnett test: Immobility Time Average (min 3-6), Forced Swim Test Day 2 [1]: 0.9990 | p, Sal vs. drug, Fisher's PLSD: Immobility Time (min 1-6), Forced Swim Test Day 2 (2.5 mg/kg): 0.1441 | p, Sal vs. drug, Fisher's PLSD: Immobility Time Average (min 3-6), Forced Swim Test Day 2 (2.5 mg/kg): 0.3992 | * (significance), Sal vs. drug, Dunnett test: Immobility Time (min 1-6), Forced Swim Test Day 2 [2]: ** (** p<0.01) | * (significance), Sal vs. drug, Dunnett test: Immobility Time (min 4), Forced Swim Test Day 2 [2]: * (* p<0.05) | * (significance), Sal vs. drug, Dunnett test: Immobility Time (min 5), Forced Swim Test Day 2 [2]: * (* p<0.05) | * (significance), Sal vs. drug, Dunnett test: Immobility Time Average (min 3-6), Forced Swim Test Day 2 [2]: ** (** p<0.01) | p, Sal vs. drug, Dunnett test: Immobility Time (min 1), Forced Swim Test Day 2 [2]: 0.0825 | p, Sal vs. drug, Dunnett test: Immobility Time (min 1-6), Forced Swim Test Day 2 [2]: 0.0006 | p, Sal vs. drug, Dunnett test: Immobility Time (min 2), Forced Swim Test Day 2 [2]: 0.0675 | p, Sal vs. drug, Dunnett test: Immobility Time (min 4), Forced Swim Test Day 2 [2]: 0.0144 | p, Sal vs. drug, Dunnett test: Immobility Time (min 5), Forced Swim Test Day 2 [2]: 0.0149 | p, Sal vs. drug, Dunnett test: Immobility Time (min 6), Forced Swim Test Day 2 [2]: 0.3306 | p, Sal vs. drug, Dunnett test: Immobility Time Average (min 3-6), Forced Swim Test Day 2 [2]: 0.0062 | * (significance), Sal vs. drug, Fisher's PLSD: Immobility Time Average (min 3-6), Forced Swim Test Day 2 [3]: *** (*** p<0.0001) | P, Sal vs. drug, Fisher's PLSD: Immobility Time Average (min 3-6), Forced Swim Test Day 2 [3]: <0.0001 | p, Sal vs. drug, Fisher's PLSD: Immobility Time (min 1-6), Forced Swim Test Day 2 (10 mg/kg): 0.1807 | p, Sal vs. drug, Fisher's PLSD: Immobility Time Average (min 3-6), Forced Swim Test Day 2 (10 mg/kg): 0.4394 | Immobility on FST Day 2, first minute, vs saline (10 mg/kg, injection one hour prior to FST Day 1, female mice): significantly less immobile compared to saline mice; also recorded: significantly less immobile than saline mice during the first minute | p, Sal vs. drug, Dunnett test: Immobility Time (min 1), Forced Swim Test Day 2 [4]: 0.9167 | p, Sal vs. drug, Dunnett test: Immobility Time (min 1-6), Forced Swim Test Day 2 [4]: 0.1741 | p, Sal vs. drug, Dunnett test: Immobility Time (min 2), Forced Swim Test Day 2 [4]: 0.7390 | p, Sal vs. drug, Dunnett test: Immobility Time (min 4), Forced Swim Test Day 2 [4]: 0.4082 | p, Sal vs. drug, Dunnett test: Immobility Time (min 5), Forced Swim Test Day 2 [4]: 0.3770 | p, Sal vs. drug, Dunnett test: Immobility Time (min 6), Forced Swim Test Day 2 [4]: 0.8643 | p, Sal vs. drug, Dunnett test: Immobility Time Average (min 3-6), Forced Swim Test Day 2 [4]: 0.5537 | p, Sal vs. drug, Fisher's PLSD: Immobility Time (min 1-6), Forced Swim Test Day 2 (30 mg/kg): 0.0750 | p, Sal vs. drug, Fisher's PLSD: Immobility Time Average (min 3-6), Forced Swim Test Day 2 (30 mg/kg): 0.3050 | p, Immobility Time (min 1) [5]: 0.9806 | p, Immobility Time (min 1-6) [5]: 0.1415 | p, Immobility Time (min 3) [5]: 0.9989 | p, Immobility Time (min 4) [5]: 0.9991 | p, Immobility Time (min 5) [5]: 0.9999 | p, Immobility Time (min 6) [5]: 0.9999 | p, Immobility Time Average (min 3-6) [5]: 0.9994 | * (significance), Immobility Time (min 3) [6]: * (* p<0.05) | p, Immobility Time (min 1) [6]: 0.9957 | p, Immobility Time (min 1-6) [6]: 0.2256 | p, Immobility Time (min 3) [6]: 0.0470 | p, Immobility Time (min 4) [6]: 0.3636 | p, Immobility Time (min 5) [6]: 0.2596 | p, Immobility Time (min 6) [6]: 0.1488 | p, Immobility Time Average (min 3-6) [6]: 0.0733 | p, Immobility Time (min 1) [7]: 0.9955 | p, Immobility Time (min 1-6) [7]: 0.3435 | p, Immobility Time (min 3) [7]: 0.1617 | p, Immobility Time (min 4) [7]: 0.9555 | p, Immobility Time (min 5) [7]: 0.8239 | p, Immobility Time (min 6) [7]: 0.8254 | p, Immobility Time Average (min 3-6) [7]: 0.5081 | p, Immobility Time (min 1-6), OVX Sal vs OVX drug [8]: 0.0920 | p, Immobility Time Average (min 3-6), Fisher's PLSD, OVX Sal vs OVX drug [8]: 0.0570 | * (significance), Immobility Time (min 1-6), Sham Sal vs Sham drug [9]: * (* p<0.05) | * (significance), Immobility Time Average (min 3-6), Fisher's PLSD, Sham Sal vs Sham drug [9]: * (* p<0.05)
